Counter-ions that a name gives are not always drawn. Like-named read-outs stand apart in the source and are kept apart here.
Legend:
[1] = tested on: abdominal cramps caused by PBQ; assay: Abdominal contractions induced by phenyl-p-benzoquinone (PBQ) in the NMRI mouse; type: in vivo; conditions: 10 mg/kg IP
Description: Intraperitoneal administration of an alcoholic solution of PBQ causes abdominal cramps in the mouse (Proc. Soc. Exp. Biol., 1957, 95, 729-731). The cramps are characterised by repeated contractions of the abdominal musculature, accompanied by extension of the hind limbs. Most analgesics antagonise these abdominal cramps (Brit. J. Pharmacol. Chem., 1968, 32, 295-310). At t=0 min., the animals are weighed and the compound being studied is administered by the IP route. A group of control animals is given the solvent used for the compound. At t=30 min., an alcoholic solution of PBQ (0.2%) is administered by the IP route in a volume of 0.25 ml/mouse. Immediately after administration of the PBQ, the animals are placed in cylinders of plexiglass (L=19.5 cm; I.D.=5 cm). From t=35 min. to t=45 min., the animals' reaction is observed and the experimenter notes the total number of abdominal cramps per animal. The results are expressed as the percentage inhibition of the number of abdominal cramps measured in the control animals, at the active dose of the compound studied.

[2] = tested on: release of acetylcholine in the prefrontal cortex; assay: In vivo measurement of the release of acetylcholine by intra-cortical microdialysis in the conscious Wistar rat; design: dose or concentration left out as unconfirmed; conditions: one hour after administration
Description: The systemic administration of nicotine and nicotinic agonists causes an increase, in vivo, of acetylcholine in various regions of the brain (Neurochem. Res., 1996, 21, 1181-1186; Eur. J. Pharmacol., 1998, 351, 181-188; Br. J. Pharmacol., 1999, 127, 1486-1494). A microdialysis probe is implanted in the median prefrontal cortex of male Wistar rats. Six or seven days after they have been implanted, the probes are perfused with Ringer's solution (NaCl 147 mM, KCl 2.7 mM, CaCl2 1.2 mM, MgCl2 1 mM, neostigmine 20 nM) at a flow rate of 1 μl/min, the animal being free to move. After 2 hours in the animal quarters, the product under test is administered by the intraperitoneal route. A group of control animals receives the solvent used for the product. The dialysates (30 μl) are then collected every 30 minutes for 4 hours in order to measure the cortical extra-synaptic concentrations of acetylcholine by means of HPLC with amperometric detection. The results are expressed in pg of acetylcholine/dialysate, and inter-group comparisons are carried out by means of variance analysis using 2 factors (treatment×time), with measurements being repeated over time.

[3] = tested on: social recognition (memorisation); assay: Social recognition in the Wistar rat; type: in vivo; conditions: 3 mg/kg IP, 2 hours after administration
Description: Initially described in 1982 (J. Comp. Physiol., 1982, 96, 1000-1006), the social recognition test has subsequently been proposed by various authors (Psychopharmacology, 1987, 91, 363-368; Psychopharmacology, 1989, 97, 262-268) for studying the mnemocognitive effects of new compounds. The test is based on the natural expression of the olfactory memory of the rat and its natural tendency to forget and allows evaluation of memorisation, by recognition of a young congeneric animal, by an adult rat. A young rat (21 days), taken at random, is placed for 5 minutes in the cage housing an adult rat. With the aid of a video device, the experimenter observes the social recognition behaviour of the adult rat and measures its overall duration. The young rat is then removed from the adult rat's cage and is placed in its own cage until the second introduction. The adult rat is given the compound under test by the intraperitoneal route and, after 2 hours, is again brought into the presence (5 minutes) of the young rat. The social recognition behaviour is then observed again and its duration measured. The assessment criterion is the difference (T2−T1), expressed in seconds, between the “recognition” times of the 2 encounters.

[4] = molecular target: T1, type α4β2 central nicotinic receptors (Rattus norvegicus, UniProt P09483+P12390); assay: Displacement of binding of [3H]-cytisine on type α4β2 nicotinic receptors of rat brain
T1 construct: from tissue; host or cells: rat brain membranes
Description: This study, carried out according to the technique described in Molec. Pharmacol., 1990, 39; 9-12, is aimed at determining the affinity of compounds of the present invention for type α4β2 central nicotinic receptors.
Membranes (250 μg/ml) of rat brain are incubated (2 hours, 20° C.) in the presence of a series of concentrations (0.01-10 μM) of each compound of the present invention (diluted starting from a 10 mM stock solution in DMSO) and [^3H]-cytisine (S.A.: 1184 GBq/mmol: 2 nM) in phosphate buffer (NaH2PO4 20 mM, pH 7.4); final volume: 250 μl. The non-specific binding is determined by incubating membranes in the presence of 10 μM of (−)nicotine. The affinity of the compounds of the present invention for type α4β2 central nicotinic receptors is characterised by determination of the Ki.

[5] = tested on: object recognition (memorisation); assay: Object recognition in the Wistar rat; type: in vivo; conditions: 0.3 mg/kg PO, 2nd session 24 hours later
Description: The object recognition test in the Wistar rat (Behav. Brain Res., 1988, 31, 47-59) is based on the spontaneous exploratory activity of the animal and has the characteristics of episodic memory in humans. Sensitive to ageing (Eur. J. Pharmacol., 1997, 325, 173-180), as well as to cholinergic dysfunctions (Pharm. Biochem. Behav., 1996, 5(2), 277-283), this memory test is based on the differential exploration of 2 objects of fairly similar size, one familiar and the other new. Before the test, the animals are accustomed to the environment (enclosure without object). During a 1st session, the rats are placed (for 3 minutes) in an enclosure containing 2 identical objects. The duration of exploration of each object is measured. During the second session (3 minutes), 24 hours later, 1 of the 2 objects is replaced by a new object. The duration of exploration of each object is measured. The assessment criterion is the difference Delta, expressed in seconds, between the exploration times of the new object and the familiar object during the 2nd session.

[6] = molecular target: type α7 central nicotinic receptors (Rattus norvegicus, UniProt Q05941); assay: biochemical; type: binding
Sequence of type α7 central nicotinic receptors (Q05941 23-502): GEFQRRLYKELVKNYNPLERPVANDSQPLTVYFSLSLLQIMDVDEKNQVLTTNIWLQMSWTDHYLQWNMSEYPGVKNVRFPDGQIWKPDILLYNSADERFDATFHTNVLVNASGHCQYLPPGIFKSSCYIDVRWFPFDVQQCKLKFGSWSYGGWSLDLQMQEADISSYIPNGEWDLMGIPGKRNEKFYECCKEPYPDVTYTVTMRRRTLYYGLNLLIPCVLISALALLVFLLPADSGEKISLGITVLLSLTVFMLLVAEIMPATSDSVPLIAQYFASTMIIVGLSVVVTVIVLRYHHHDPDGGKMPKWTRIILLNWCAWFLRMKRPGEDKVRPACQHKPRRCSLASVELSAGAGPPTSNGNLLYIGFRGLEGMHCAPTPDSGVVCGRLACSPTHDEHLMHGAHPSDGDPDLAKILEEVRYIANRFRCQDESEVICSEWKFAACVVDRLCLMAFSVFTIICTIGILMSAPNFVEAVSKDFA

T1 sequence (P09483 31-630): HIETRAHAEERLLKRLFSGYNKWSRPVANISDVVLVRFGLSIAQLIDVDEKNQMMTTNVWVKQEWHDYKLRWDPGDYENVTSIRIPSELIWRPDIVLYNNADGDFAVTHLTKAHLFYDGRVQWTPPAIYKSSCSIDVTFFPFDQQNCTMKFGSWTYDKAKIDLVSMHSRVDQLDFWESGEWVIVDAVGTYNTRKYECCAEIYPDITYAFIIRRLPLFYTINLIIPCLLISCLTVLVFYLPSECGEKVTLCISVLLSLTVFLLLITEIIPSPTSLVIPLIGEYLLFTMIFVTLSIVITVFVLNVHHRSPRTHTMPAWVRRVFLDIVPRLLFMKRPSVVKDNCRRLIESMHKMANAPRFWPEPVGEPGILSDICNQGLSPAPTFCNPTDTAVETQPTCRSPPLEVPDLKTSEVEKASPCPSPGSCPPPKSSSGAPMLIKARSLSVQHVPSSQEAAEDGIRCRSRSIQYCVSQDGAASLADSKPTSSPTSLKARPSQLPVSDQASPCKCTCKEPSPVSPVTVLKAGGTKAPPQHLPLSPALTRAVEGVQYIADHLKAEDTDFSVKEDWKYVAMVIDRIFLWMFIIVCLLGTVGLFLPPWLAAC
T1 sequence (P12390 25-500): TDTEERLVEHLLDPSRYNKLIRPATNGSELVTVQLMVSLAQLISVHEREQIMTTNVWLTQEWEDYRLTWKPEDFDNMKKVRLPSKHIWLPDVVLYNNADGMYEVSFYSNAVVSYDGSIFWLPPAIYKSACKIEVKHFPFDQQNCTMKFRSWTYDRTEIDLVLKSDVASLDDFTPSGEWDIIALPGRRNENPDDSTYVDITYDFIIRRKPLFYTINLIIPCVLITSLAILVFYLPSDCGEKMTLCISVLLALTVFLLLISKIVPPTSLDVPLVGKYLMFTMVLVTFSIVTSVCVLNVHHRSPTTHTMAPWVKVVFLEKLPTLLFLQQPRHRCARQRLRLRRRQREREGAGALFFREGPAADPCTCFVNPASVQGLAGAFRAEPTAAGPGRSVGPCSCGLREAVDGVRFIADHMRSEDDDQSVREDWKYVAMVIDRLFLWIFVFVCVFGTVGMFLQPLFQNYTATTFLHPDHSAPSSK

CNC1(CN(C)c2ccc(Br)nc2)CC1.O=C(O)/C=C/C(=O)O
melting point: 146 to 150 °C

CNC1(CNc2ccc(C)nc2)CC1.Cl.Cl
melting point: 230 to 232 °C

CNC1(CN(C)c2ccc(C)nc2)CC1.Cl.Cl
melting point: 112 to 115 °C

CN(C)C1(CNc2ccc(Cl)nc2)CC1.Cl.Cl
melting point: 158 to 160 °C

CN(CC1(N(C)C)CC1)c1ccc(Cl)nc1.Cl.Cl
melting point: 163 to 166 °C

CNC1(CN(Cc2ccccc2)c2ccc(Cl)nc2)CC1.Cl.Cl
melting point: 156 to 157 °C

CN(C)C1(CN(Cc2ccccc2)c2ccc(Cl)nc2)CC1.Cl
melting point: 190 to 192 °C

CN(C)C1(CNc2cccnc2)CC1.Cl.Cl
melting point: 208 to 210 °C

CN(CC1(N)CC1)c1cccnc1.Cl.Cl
melting point: 218 to 222 °C

CN(CC1(N(C)C)CC1)c1cccnc1.Cl.Cl
melting point: 198 to 201 °C

CNC1(CN(C)c2ccc(Cl)nc2)CC1 (as salt: hydrochloride) [Example 10, 6-Chloro-N-methyl-N-{[1-(methylamino)cyclopropyl)methylpyridin-3-aminedihydrochloride]
melting point: 133 to 136 °C

CNC1(CNc2cccnc2)CC1.Cl.Cl [Example 1, N-{[1-(Methylamino)cyclopropyl]methyl}pyridin-3-amine dihydrochloride]
reduction of the number of abdominal cramps caused by PBQ [1]: −50%
increase in the release of acetylcholine in the prefrontal cortex [2]: +70%
melting point: 190 to 195 °C
difference (T2−T1) between recognition times [3]: 36 s
Ki [4]: 34 nM
difference Delta between exploration times of new and familiar object [5]: 9 s

CNC1(CN(C)c2cccnc2)CC1.Cl.Cl [Example 2, N-Methyl-N-{[1-(methylamino)cyclopropyl]methyl}pyridin-3-amine dihydrochloride]
reduction of the number of abdominal cramps caused by PBQ [1]: −76%
increase in the release of acetylcholine in the prefrontal cortex [2]: +80%
melting point: 180 to 184 °C
Ki [6]: 8300 nM
difference (T2−T1) between recognition times [3]: 29 s
Ki [4]: 15 nM
difference Delta between exploration times of new and familiar object [5]: 4 s

Cl.Cl.NC1(CNc2cccnc2)CC1 [Example 4, N-[(1-Aminocyclopropyl)methyl]pyridin-3-amine dihydrochloride]
melting point: 195 to 199 °C
difference (T2−T1) between recognition times [3]: 19 s

CNC1(CNc2ccc(Cl)nc2)CC1.Cl.Cl [Example 9]
reduction of the number of abdominal cramps caused by PBQ [1]: −52%

CNC1(CN(C)c2ccc(Cl)nc2)CC1 [Example 10, 6-Chloro-N-methyl-N-{[1-(methylamino)cyclopropyl)methylpyridin-3-aminedihydrochloride]
reduction of the number of abdominal cramps caused by PBQ [1]: −69%
Ki ([4]; [3H]-cytisine, rat brain membranes, read-out: Ki, type α4β2 central nicotinic receptors): 16 nM
